Measurements from US11596639B2, “Substituted indole Mcl-1 inhibitors” (Vanderbilt University, priority 2016, dated 2023).
pKi: −log10 of the molar value. Where two headings read alike, the source gives them in different places.

What was measured:
[1] = tested on: H929 human cancer cell lines; test: Cellular viability / proliferation (Cell TiterGlo, 72 h); assay type: cell-based
How it was run: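 Compounds were added as 2-fold serial dilutions from 50 μM (final DMSO <1%) to H929 cells seeded 1,000 per well in 10% FBS medium one day earlier.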

Mcl-1 = Mcl-1 (Homo sapiens (Human), UniProt Q07820); test: Fluorescence polarization anisotropy (FPA) competition assay, FITC-Bak or FITC-Bim BH3 peptide; assay type: binding; conditions: read-out: Ki for Inhibition of Mcl-1 by FPA assay
[2] = Homo sapiens, NCI-H929, 72 h, read-out: GI50 on cellular proliferation of H929 human cancer cell lines, H929 cells, 72 h, Cell TiterGlo, 10% FBS
[3] = H929 cells, 72 h, Cell TiterGlo, 10% FBS, read-out: GI50 on cellular proliferation of H929 human cancer cell lines

Mcl-1, sequence (Q07820 172-327): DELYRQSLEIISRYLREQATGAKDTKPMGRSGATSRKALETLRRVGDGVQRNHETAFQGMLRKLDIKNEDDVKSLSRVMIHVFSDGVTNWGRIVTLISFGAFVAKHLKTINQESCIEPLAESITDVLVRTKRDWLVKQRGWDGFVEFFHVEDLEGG

Compound | GI50 [1, 2] [µM] | pKi (Mcl-1) | GI50 ([1]; read-out: GI50 on cellular proliferation of H929 human cancer cell lines, H929 cells, 72 h, Cell TiterGlo, 10% FBS) [µM] | GI50 [1, 3] [µM]
Cc1noc(-c2ccc3c(c2)c(N2C[C@@H](C)n4c(c(CCCOc5cc(C)c(Cl)c(C)c5)c5ccc(Cl)c(-c6c(C)nn(C)c6C)c54)C2=O)cn3C)n1 [Example 393, (R)-7-Chloro-10-(3-(4-chloro-3,5-dimethylphenoxy)propyl)-4-methyl-2-(1-methyl-5-(3-methyl-1,2,4-oxadiazol-5-yl)-1H-indol-3-yl)-6-(1,3,5-trimethyl-1H-pyrazol-4-yl)-3,4-dihydropyrazino[1,2-a]indol-1(2H)-one] | 1.2 | 8.64 |  | 
Cc1cc(OCCCc2c3n(c4c(-c5c(C)nn(C)c5C)c(Cl)ccc24)[C@H](C)CN(c2nn(C)c4cccc(C(=O)O)c24)C3=O)cc(C)c1Cl [Example 179, (R)-3-(7-Chloro-10-(3-(4-chloro-3,5-dimethylphenoxy)propyl)-4-methyl-1-oxo-6-(1,3,5-trimethyl-1H-pyrazol-4-yl)-3,4-dihydropyrazino[1,2-a]indol-2(1H)-yl)-1-methyl-1H-indazole-4-carboxylic acid] |  | > 9.00 | 4.7 | 
Cc1cc(OCCCc2c3n(c4c(-c5c(C)n[nH]c5C)c(Cl)ccc24)CCCN(c2cccc4cccnc24)C3=O)cc(C)c1Cl [Example 150, 8-Chloro-11-(3-(4-chloro-3,5-dimethylphenoxy)propyl)-7-(3,5-dimethyl-1H-pyrazol-4-yl)-2-(quinolin-8-yl)-2,3,4,5-tetrahydro-1H-[1,4]diazepino[1,2-a]indol-1-one] |  | 7.89 |  | 5.1
Cc1cc(OCCCc2c3n(c4c(-c5c(C)nn(C)c5C)c(Cl)ccc24)[C@H](C)CN(c2cn(C)c4ccc(C(=O)NCc5cccnc5)cc24)C3=O)cc(C)c1Cl [Example 287, 3-[(4R)-7-chloro-10-[3-(4-chloro-3,5-dimethyl-phenoxy)propyl]-4-methyl-1-oxo-6-(1,3,5-trimethylpyrazol-4-yl)-3,4-dihydropyrazino[1,2-a]indol-2-yl]-1-methyl-N-(3-pyridylmethyl)indole-5-carboxamide] | 1.6 | 8.52 |  | 
Cc1cc(OCCCc2c3n(c4c(-c5c(C)ncnc5C)c(Cl)ccc24)[C@H](C)CN(c2cccc4cc(C(=O)O)n(C)c24)C3=O)cc(C)c1Cl [Example 238, 7-[(4R)-7-chloro-10-[3-(4-chloro-3,5-dimethyl-phenoxy)propyl]-6-(4,6-dimethylpyrimidin-5-yl)-4-methyl-1-oxo-3,4-dihydropyrazino[1,2-a]indol-2-yl]-1-methyl-indole-2-carboxylic acid] | 0.34 | > 9.00 |  | 
Cc1cc(OCCCc2c3n(c4c(-c5c(C)ncnc5C)c(Cl)ccc24)CCCNC3=O)cc(C)c1Cl [Example 120, 8-Chloro-11-(3-(4-chloro-3,5-dimethylphenoxy)propyl)-7-(4,6-dimethylpyrimidin-5-yl)-2,3,4,5-tetrahydro-1H-[1,4]diazepino[1,2-a]indol-1-one] | 12 | 7.41 |  | 
COc1cc(N2C[C@@H](C)n3c(c(CCCOc4cc(C)c(Cl)c(C)c4)c4ccc(Cl)c(-c5c(C)nn(C)c5C)c43)C2=O)c2c(c1)c(C(=O)O)cn2C [Example 436, (R)-7-(7-Chloro-10-(3-(4-chloro-3,5-dimethylphenoxy)propyl)-4-methyl-1-oxo-6-(1,3,5-trimethyl-1H-pyrazol-4-yl)-3,4-dihydropyrazino[1,2-a]indol-2(1H)-yl)-5-methoxy-1-methyl-1H-indole-3-carboxylic acid] | 0.51 | 8.68 |  | 
Cc1cc(OCCCc2c3n(c4c(-c5c(C)n[nH]c5C)c(Cl)ccc24)CCCN(c2cc(C(=O)O)c4ccn(C)c4c2)C3=O)cc(C)c1Cl [Example 58, 6-(8-Chloro-11-(3-(4-chloro-3,5-dimethylphenoxy)propyl)-7-(3,5-dimethyl-1H-pyrazol-4-yl)-1-oxo-4,5-dihydro-1H-[1,4]diazepino[1,2-a]indol-2(3H)-yl)-1-methyl-1H-indole-4-carboxylic acid] | 3 | > 9.00 |  | 
Cc1cc(OCCCc2c3n(c4c(-c5c(C)nn(C)c5C)c(Cl)ccc24)CCCN(c2cc(C(=O)O)c4cn(CCN5CCOCC5)nc4c2)C3=O)cc(C)c1Cl [Example 12, 6-[8-Chloro-11-[3-(4-chloro-3,5-dimethyl-phenoxy)propyl]-1-oxo-7-(1,3,5-trimethylpyrazol-4-yl)-4,5-dihydro-3H-[1,4]diazepino[1,2-a]indol-2-yl]-2-(2-morpholinoethyl)indazole-4-carboxylic acid] | 8.3 | 8.92 |  | 
Cc1cc(OCCCc2c3n(c4c(-c5c(C)nn(C)c5C)c(Cl)ccc24)[C@H](C)CN(c2ccnc4ccc(-c5nn[nH]n5)cc24)C3=O)cc(C)c1Cl [Example 414, (R)-2-(6-(2H-Tetrazol-5-yl)quinolin-4-yl)-7-chloro-10-(3-(4-chloro-3,5-dimethylphenoxy)propyl)-4-methyl-6-(1,3,5-trimethyl-1H-pyrazol-4-yl)-3,4-dihydropyrazino[1,2-a]indol-1(2H)-one] | 1.4 | > 9.00 |  | 
Cc1cc(OCCCc2c3n(c4c(-c5c(C)nn(C)c5C)c(Cl)ccc24)[C@H](C)CN(c2cccc4cc(C(=O)O)n(Cc5cncnc5)c24)C3=O)cc(C)c1Cl [Example 311, 7-[(4R)-7-chloro-10-[3-(4-chloro-3,5-dimethyl-phenoxy)propyl]-4-methyl-1-oxo-6-(1,3,5-trimethylpyrazol-4-yl)-3,4-dihydropyrazino[1,2-a]indol-2-yl]-1-(pyrimidin-5-ylmethyl)indole-2-carboxylic acid] | 3.4 | > 9.00 |  | 
Cc1cc(OCCCc2c3n(c4c(-c5c(C)nn(C)c5C)c(Cl)ccc24)[C@H](C)CN(c2ccc(O)c4cc(C(=O)O)n(C)c24)C3=O)cc(C)c1Cl [Example 321, (M, R)-7-(7-Chloro-10-(3-(4-chloro-3,5-dimethylphenoxy)propyl)-4-methyl-1-oxo-6-(1,3,5-trimethyl-1H-pyrazol-4-yl)-3,4-dihydropyrazino[1,2-a]indol-2(1H)-yl)-4-hydroxy-1-methyl-1H-indole-2-carboxylic acid] |  | > 9.00 |  | 1.4
Cc1cc(OCCCc2c3n(c4c(-c5c(C)nn(C)c5C)c(Cl)ccc24)[C@H](C)CN(c2cn(C)c4ccc(-c5ncn(CC6COC6)n5)cc24)C3=O)cc(C)c1Cl [Example 475, (R)-7-Chloro-10-(3-(4-chloro-3,5-dimethylphenoxy)propyl)-4-methyl-2-(1-methyl-5-(1-(oxetan-3-ylmethyl)-1H-1,2,4-triazol-3-yl)-1H-indol-3-yl)-6-(1,3,5-trimethyl-1H-pyrazol-4-yl)-3,4-dihydropyrazino[1,2-a]indol-1(2H)-one] | 0.25 | 8.15 |  | 
Cc1cc(OCCCc2c3n(c4c(-c5c(C)nn(C)c5C)c(Cl)ccc24)[C@H](C)CN(c2cccc4ccc(C(=O)O)cc24)C3=O)cc(C)c1Cl [Example 349, (M, R)-8-(7-Chloro-10-(3-(4-chloro-3,5-dimethylphenoxy)propyl)-4-methyl-1-oxo-6-(1,3,5-trimethyl-1H-pyrazol-4-yl)-3,4-dihydropyrazino[1,2-a]indol-2(1H)-yl)-2-naphthoic acid] |  | 8.55 |  | 0.78
CCn1ncc2cc(C(=O)O)cc(N3CCCn4c(c(CCCOc5cc(C)c(Cl)c(C)c5)c5ccc(Cl)c(-c6c(C)nn(C)c6C)c54)C3=O)c21 [Example 122, 7-(8-Chloro-11-(3-(4-chloro-3,5-dimethylphenoxy)propyl)-1-oxo-7-(1,3,5-trimethyl-1H-pyrazol-4-yl)-4,5-dihydro-1H-[1,4]diazepino[1,2-a]indol-2(3H)-yl)-1-ethyl-1H-indazole-5-carboxylic acid] | 11 | 8.66 |  | 
Cc1cc(OCCCc2c3n(c4c(-c5c(C)nn(C)c5C)c(Cl)ccc24)CCCN(c2cc(C(=O)O)cc4nn(CCN(C)C)cc24)C3=O)cc(C)c1Cl [Example 28, 4-[8-chloro-11-[3-(4-chloro-3,5-dimethyl-phenoxy)propyl]-1-oxo-7-(1,3,5-trimethylpyrazol-4-yl)-4,5-dihydro-3H-[1,4]diazepino[1,2-a]indol-2-yl]-2-[2-(dimethylamino)ethyl]indazole-6-carboxylic acid] | 3.7 | 8.74 |  | 
Cc1cc(OCCCc2c3n(c4c(-c5c(C)nn(CC6CCOCC6)c5C)c(Cl)ccc24)[C@H](C)CN(c2cccc4c(C(=O)O)cn(C)c24)C3=O)cc(C)c1Cl [Example 128, (R)-7-(7-chloro-10-(3-(4-chloro-3,5-dimethylphenoxy)propyl)-6-(3,5-dimethyl-1-((tetrahydro-2H-pyran-4-yl)methyl)-1H-pyrazol-4-yl)-4-methyl-1-oxo-3,4-dihydropyrazino[1,2-a]indol-2(1H)-yl)-1-methyl-1H-indole-3-carboxylic acid] | 0.41 | > 9.00 |  | 
Cc1cc(OCCCc2c3n(c4c(-c5c(C)nn(C)c5C)c(Cl)ccc24)[C@H](C)CN(c2cc(OCCN4CCOCC4)cc4cc(C(=O)O)n(C)c24)C3=O)cc(C)c1Cl [Example 458, (R)-7-(7-Chloro-10-(3-(4-chloro-3,5-dimethylphenoxy)propyl)-4-methyl-1-oxo-6-(1,3,5-trimethyl-1H-pyrazol-4-yl)-3,4-dihydropyrazino[1,2-a]indol-2(1H)-yl)-1-methyl-5-(2-morpholinoethoxy)-1H-indole-2-carboxylic acid] | 0.29 | 8.92 |  | 
Cc1cc(OCCCc2c3n(c4c(-c5c(C)nn(C)c5C)c(Cl)ccc24)[C@H](C)CN(c2cn(C)c4ccc(-c5cnccn5)cc24)C3=O)cc(C)c1Cl [Example 430, (R)-7-Chloro-10-(3-(4-chloro-3,5-dimethylphenoxy)propyl)-4-methyl-2-(1-methyl-5-(pyrazin-2-yl)-1H-indol-3-yl)-6-(1,3,5-trimethyl-1H-pyrazol-4-yl)-3,4-dihydropyrazino[1,2-a]indol-1(2H)-one] | 1.4 | 8.72 |  | 
